The values that follow come from publication PMC3359661, “FK228 Analogues Induce Fetal Hemoglobin in Human Erythroid Progenitors” (Anemia, 2012).

Bounds are passed on as bounds.

Experiment [1] relates to HbF-positive primary erythroid progenitors. As to the kind of experiment: Anti-HbF FITC immunostaining of primary erythroid progenitors. Type of experiment: cell-based, human. To be noted: anti-HbF FITC / DAPI, 500 cells counted; 15.5% HbF-positive at baseline in untreated cells. The procedure:
(§1) The two-phase liquid culture system was established as previously published by Fibach et al. using buffy coat mononuclear cells, purchased from Carter Blood Care (Fort Worth, TX) in accordance with the guidelines of the Institutional Review Board at the University of Texas at Dallas. During phase 1, cells were grown in IMDM medium with 30% fetal bovine serum and 50 ng/mL each of the granulocyte-monocyte colony-stimulating factor, Interleukin-3, and stem cell factor. Subsequently, phase 2 was initiated on day 7 with the addition of erythropoietin (2 U/mL) and stem cell factor (50 ng/mL). The cells were treated on Day 11 with the different test compounds and harvested on Day 14 (72 hr incubation).
Primary erythroid progenitor cytospin cell preparations were fixed with 4% paraformaldehyde in phosphate buffered saline for 15 min, washed, and then permeabilized with 0.3% Trition-100 solution for 10 min. Cells were then blocked in a 5% bovine serum albumin solution and immunostaining performed at 4°C overnight with anti-HbF fluorescein isothiocyanate (FITC) conjugated antibody (Bethyl Laboratories Inc., TX). Cell nuclei were stained with mounting medium containing 4′,6-diamidino-2-phenylindole (DAPI; Santa Cruz Biotechnology, CA). Primary cells were photographed with an Olympus BX 51 phase contrast epifluorescent microscope equipped with Hoffman Modulation optics. Phase-contrast images were recorded with a CCD camera (1/100 sec exposure) and fluorescence images were photographed through 485/520 nm emission filter. The percent of HbF positive cells was calculated by dividing the number of FITC positive cells by total cells (DAPI positive).
Figure 3 JMA33 and JMA26 induce HbF in primary erythroid cells. (a) Day 11 erythroid progenitors were treated for 48 hr with the controls agents and the FK228 analogues shown and then analyzed by RT-qPCR. Untreated cells (UT) were used as a control and normalized to one. Data were calculated as the means ± SEM. […] The images generated were used to count 500 DAPI positive cells and the %FITC positive cells were calculated accordingly.

Experiment [2] concerns HbF levels in primary erythroid cells. The experiment in a line: HbF ELISA in primary erythroid cells. Type of experiment: cell-based, human. The conditions noted are these: for Fold change in HbF levels: relative to untreated = 1, concentrations as in E7; for Fetal hemoglobin quantification, Mean (HbF/total Hb/total protein): treated Day 11, harvested Day 14, conc: Cys 10 mM, Hemin 50 μM, SAHA 2000 nM, FK228 1.5 nM, JMA1 1.5 nM, JMA2 1.0 nM, JMA26 500 nM, JMA33 1000 nM, untreated 0.683. Here is the method:
as §1
Total hemoglobin was quantified using 20 μL of protein extract from one million KU812 cells mixed with 5 mL of Drabkin's reagent (Sigma); then cyanmethemoglobin was measured at the 540 nm wavelength. HbF levels were quantified using the human Hemoglobin F ELISA Quantitation Kit (Bethyl Laboratory, Montgomery, TX). Briefly, 96-well plates were coated with sheep anti-human HbF antibody (1 mg/mL). After blocking with 1% bovine serum albumin, horse radish peroxidase-conjugated secondary antibody (1 mg/mL) was added. Raw data were analyzed using GraphPad PRISM (GraphPad Software, Inc., La Jolla, CA) and HbF levels were calculated as a ratio of total hemoglobin corrected for total protein (HbF/total Hb/total protein).

In experiment [3] the test system is γ-globin promoter activity in KU812-γF/βR stable lines. As to the kind of experiment: KU812 dual-luciferase reporter stable lines (μLCRβprRluc AγprFluc), γ-globin promoter activity. Type of experiment: cell-based, human. To be noted: 48 hr; for Fold change (γ/γ + 2β): untreated normalized to one. The text has this:
KU812 stable cell lines were created by co-transfecting wild-type KU812 cells with pEGFP-NI (G418 selectable marker) and theμLCRβ prRluc ^A γ prFluc dual-reporter a kind gifts from Dr. George Stamatoyannopoulos (University of Washington). […] Likewise, 1.4 kb of human Aγ-globin promoter was inserted upstream of firefly luciferase to create ^A γ prFluc. The μLCR (locus control region), Pβ prRluc, and ^A γ prFluc fragments were subsequently cloned into the mammalian vector, pRL-null.
After 72 hr, G418 was added at a concentration of […] for 3 days then maintained under selection pressure indefinitely at a concentration of […]. KU812 stable lines were treated with the various drugs at the same concentrations described above. FK228 and analogues were screened at concentrations between 1–1000 nM for 48 hr and cell toxicity was monitored by 2% Trypan blue exclusion. The effect of drug treatments on γ-globin and β-globin promoter activity was monitored by luciferase assay.
Luciferase activity was monitored under the different experimental conditions using the Dual Luciferase Assay Reporter System (Promega, Madison, WI). The activity of firefly luciferase represents γ-globin promoter activity (γF), while the renilla luciferase is the read-out for β-globin promoter activity (βR). The β-globin promoter was strategically cloned between the LCR and γ-globin promoter to increase β expression, while simultaneously increasing the sensitivity of detection of γ-globin gene inducers.
After drug treatments, KU812 stable cells were washed with 1X phosphate buffered saline and lysed in 1X Passive Lysis Buffer for 15 min, then protein extracts were added to the Luciferase Assay Reagent II and firefly luciferase activity quantified in a Turner Designs TD-20/20 luminometer (Sunnyvale, CA). To measure βR activity, Stop & Glo Reagents was added to measure the renilla luciferase activity. Total protein was determined by Bradford assay on a Beckman DU 640 spectrophotometer (Chaska, MN) and luciferase activity was corrected for total protein.
Subsequently, three independent dual-luciferase reporter KU812 stable cell lines were established to analyze the ability FK228 analogues to induce γ-globin promoter activity without an effect on β-globin transcription. […] Since the firefly luciferase gene (γF) has approximately […] luminescence than the renilla gene (βR), the renilla activity was multiplied by two to adjust for the difference in luminescence yielding the γ/γ+2β final measurement. The FK228 analogues were examined at concentrations ranging from 1–1000 nM in the three stable lines. After 48-hour treatments, cells were harvested and protein isolated for luciferase activity using the Dual Luciferase Reporter Assay.

The test system of experiment [4] is γ-globin transcription in primary erythroid progenitors. As to the kind of experiment: RT-qPCR of γ-globin mRNA in primary erythroid progenitors (two-phase liquid culture). Type of experiment: cell-based, human. The conditions noted are these: Day 11 erythroid progenitors treated 48 hr (Figure 3 legend), untreated normalized to one. Here is the method:
as §1
Total RNA was isolated from samples using RNA Stat-60 (TEL-TEST “B” Inc., Friendswood, TX) and used for RT-qPCR analysis as previously published. […] The globin mRNA levels were calculated as a ratio of GAPDH (γ/GAPDH, β/GAPDH), and the γ/β-globin mRNA ratio was calculated by dividing γ/GAPDH by β/GAPDH.
Figure 3 JMA33 and JMA26 induce HbF in primary erythroid cells. (a) Day 11 erythroid progenitors were treated for 48 hr with the controls agents and the FK228 analogues shown and then analyzed by RT-qPCR. […] Data were calculated as the means ± SEM. […] The images generated were used to count 500 DAPI positive cells and the %FITC positive cells were calculated accordingly.
For orientation: Quantitative PCR measures a nucleic acid by following its amplification.

The test system of experiment [5] is HDAC activity in HeLa cells. As to the kind of experiment: HDAC Fluorescent Activity Assay (Fluor de Lys) in HeLa cells. Type of experiment: cell-based, human. The conditions noted are these: TSA 0.5 to 1000 nM; HeLa cells, Fluor de Lys substrate, fluorescence 440 nm. The procedure:
The HDAC Fluorescent Activity Assay (Enzo Life Science, Farmingdale, NY) was used to measure HDAC inhibition in HeLa cells in a 96-well format using Trichostatin A as the positive control per the manufacturer's protocol. This assay is based on the Fluor de Lys (Fluorogenic Histone Deacetylase Lysyl (FDL)) Substrate/Developer. The procedure was as follows: the test compounds FK228, JMA26, and JMA33 were added to HeLa cells along with the FDL substrate to allow intracellular drug activation then fluorescence levels were read on the fluorometer at 440 nm (CytoFluor II, PerSeptive Biosystems, Farmingdale, NY). The drug concentrations tested were based on the amount required for HbF induction in primary cells. Data was reported as the mean ± standard deviation (SD) for at least five replicates.
To ascertain the mechanism of HbF induction by the lead compounds, we performed an in vivo assay to investigate the ability of JMA26 and JMA33 to act as HDAC inhibitors. The HDAC Fluorescent Activity Assay designed to measure HDAC activity in HeLa cells was completed in a 96-well format. The assay is based on the fact that the Fluor de Lys substrate is deacetylated by HDACs to generate a fluorescent readout. TSA (0.5 to 1000 nM) was used to establish the assay in HeLa cells, showing about 80% HDAC inhibition in our system (Figure 4(a)).
Figure 4 HDAC inhibition assay. The HDAC Fluorescent Activity Assay was used to measure HDAC inhibition in HeLa cells (See Section 2). Compounds and FDL substrate were added to HeLa cells to allow drug activation in vivo then fluorescence levels were quantified on the fluorometer at 440 nm. (a) Trichostatin A (TSA) was used as the control. (b) Inhibition studies were conducted for FK228 showing maximal HDAC inhibition at the 300 nM concentration. (c) Similar studies were performed for JMA33 and JMA26. The data are reported as the means ± SEM.

Another experiment concerns sickle-cell patients. To be noted: sickle cell patients treated with hydroxyurea; cited from earlier work. From the text:
Several classes of pharmacological compounds that reactivate γ-globin gene transcription have been identified. They include cytotoxic agents, DNA methyl transferase, and histone deacetylase (HDAC) inhibitors. Cytotoxic compounds terminate actively cycling progenitors and perturb cellular growth to trigger rapid erythroid regeneration and γ-globin gene activation. S-stage cytotoxic drugs, such as cytosine arabinoside, myleran, vinblastine, and hydroxyurea, induce HbF production in primates and humans. The Multicenter Study of Hydroxyurea established ...

The mark [6] stands for this setting: Line 1, firefly (γ) / renilla (β) luciferase corrected for total protein, mean, conc: Cys 10 mM, Hemin 50 μM, SAHA 2000 nM, FK228 1.5 nM, 1127Ox 1000 nM, JMA1 1.5 nM, JMA2 1.0 nM, JMA12 1000 nM, JMA26 500 nM, JMA33 1000 nM, JMA112 100 nM, untreated 0.0402.
[7] abbreviates: Line 1, concentrations as in E1.
[8] abbreviates: Line 2, concentrations as in E1, untreated 0.1573.
The mark [9] stands for this setting: Line 2, concentrations as in E1.
[10] abbreviates: Line 3, concentrations as in E1, untreated 0.0721.
[11] abbreviates: Line 3, concentrations as in E1.

Take `O=C(CCCCCCC(=O)Nc1ccccc1)NO` [SAHA, suberoylanilide hydroxamic acid]: in experiment [1], the “increase in HbF-positive cells” value is listed as 3.2 fold. Besides, the “Fold change in HbF levels” value in experiment [2] worked out at 1.602 fold. In addition, the “Fetal hemoglobin quantification, Mean (HbF/total Hb/total protein)” value in experiment [2] was 1.094. For the same compound, the entries for the “γ/γ + 2β Mean” value in experiment [3] (setting [6]), in experiment [3] (setting [8]) and in experiment [3] (setting [10]) were 0.2157, 0.6500 and 0.2520, respectively. In addition, the results for the “Fold change (γ/γ + 2β)” value in experiment [3] (setting [7]), in experiment [3] (setting [9]) and in experiment [3] (setting [11]) were 5.400, 4.140 and 3.500, respectively. For the same compound, in experiment [4], the “induction of γ-globin transcription at the mRNA level” value is no more than 3.2 fold.

With `CC(/C=C/C(=O)NO)=C\[C@@H](C)C(=O)c1ccc(N(C)C)cc1` [TSA, Trichostatin A], the HDAC inhibition result in experiment [5] is “about 80%”.

Regarding `NC(=O)NO` [hydroxyurea], in the experiment with sickle-cell patients, the non-response rate is 30%.

As for hemin, the “increase in HbF-positive cells” value in experiment [1] amounted to 3.0 fold. Further, the “Fold change in HbF levels” value in experiment [2] stood at 2.218 fold. Moreover, the “Fetal hemoglobin quantification, Mean (HbF/total Hb/total protein)” value in experiment [2] came out at 1.515. Further, the “γ/γ + 2β Mean” value in experiment [3] (setting [6]) is reported as 0.1732; in experiment [3] (setting [8]) it was 0.6593; in experiment [3] (setting [10]), 0.2508. Further, the “Fold change (γ/γ + 2β)” value in experiment [3] (setting [7]) is on record as 4.325; in experiment [3] (setting [9]) it was 4.261; in experiment [3] (setting [11]), 3.486.
